Results taken from the NIST ThermoML archive (doi:10.1021/je700261b).

Experiment: xn = mol fraction of the nth substance listed
Settings: Liquid

CCCCO [butan-1-ol] + O=C=O
Settings | mass density [kg/m3]
352.82 K, 13001 kPa, x2 = 0.1842 | 780.49
352.82 K, 14050 kPa, x2 = 0.1842 | 781.67
352.82 K, 15000 kPa, x2 = 0.1842 | 782.72
352.82 K, 15999 kPa, x2 = 0.1842 | 783.84
352.82 K, 17008 kPa, x2 = 0.1842 | 784.88
352.82 K, 18066 kPa, x2 = 0.1842 | 786.01
352.82 K, 19002 kPa, x2 = 0.1842 | 787.01
352.82 K, 20015 kPa, x2 = 0.1842 | 788.03
352.82 K, 21043 kPa, x2 = 0.1842 | 789.11
352.82 K, 22025 kPa, x2 = 0.1842 | 790.1
352.82 K, 23024 kPa, x2 = 0.1842 | 791.11
352.82 K, 24015 kPa, x2 = 0.1842 | 792.1
352.82 K, 25100 kPa, x2 = 0.1842 | 793.18
352.83 K, 2007 kPa, x2 = 0.0857 | 766.96
352.83 K, 3023 kPa, x2 = 0.0857 | 768.13
352.83 K, 3953 kPa, x2 = 0.0857 | 769.18
352.83 K, 5008 kPa, x2 = 0.0857 | 770.34
352.83 K, 5991 kPa, x2 = 0.0857 | 771.43
352.83 K, 7011 kPa, x2 = 0.0857 | 772.54
352.83 K, 7992 kPa, x2 = 0.0857 | 773.57
352.83 K, 9016 kPa, x2 = 0.0857 | 774.63
352.83 K, 10033 kPa, x2 = 0.0857 | 775.71
352.83 K, 10983 kPa, x2 = 0.0857 | 776.62
352.83 K, 12020 kPa, x2 = 0.0857 | 777.74
352.83 K, 13038 kPa, x2 = 0.0857 | 778.75
352.83 K, 13990 kPa, x2 = 0.0857 | 779.64
352.83 K, 14986 kPa, x2 = 0.0857 | 780.63
352.83 K, 16028 kPa, x2 = 0.0857 | 781.61
352.83 K, 16995 kPa, x2 = 0.0857 | 782.54
352.83 K, 17994 kPa, x2 = 0.0857 | 783.45
352.83 K, 18991 kPa, x2 = 0.0857 | 784.4
352.83 K, 20014 kPa, x2 = 0.0857 | 785.33
352.83 K, 21017 kPa, x2 = 0.0857 | 786.18
352.83 K, 21993 kPa, x2 = 0.0857 | 787.09
352.83 K, 23041 kPa, x2 = 0.0857 | 788.01
352.83 K, 24037 kPa, x2 = 0.0857 | 788.92
352.83 K, 25058 kPa, x2 = 0.0857 | 789.81
352.85 K, 13091 kPa, x2 = 0.4972 | 783.81
352.85 K, 13958 kPa, x2 = 0.4972 | 785.52
352.85 K, 15066 kPa, x2 = 0.4972 | 787.67
352.85 K, 16029 kPa, x2 = 0.4972 | 789.49
352.85 K, 17077 kPa, x2 = 0.4972 | 791.44
352.85 K, 18031 kPa, x2 = 0.4972 | 793.15
352.85 K, 19033 kPa, x2 = 0.4972 | 794.93
352.85 K, 20018 kPa, x2 = 0.4972 | 796.63
352.85 K, 21055 kPa, x2 = 0.4972 | 798.4
352.85 K, 22035 kPa, x2 = 0.4972 | 800
352.85 K, 23067 kPa, x2 = 0.4972 | 801.7
352.85 K, 24007 kPa, x2 = 0.4972 | 803.18
352.85 K, 25035 kPa, x2 = 0.4972 | 804.81
352.88 K, 14075 kPa, x2 = 0.5965 | 780.49
352.88 K, 15042 kPa, x2 = 0.5965 | 783.18
352.88 K, 16039 kPa, x2 = 0.5965 | 785.88
352.88 K, 17076 kPa, x2 = 0.5965 | 788.55
352.88 K, 18030 kPa, x2 = 0.5965 | 790.96
352.88 K, 18449 kPa, x2 = 0.8663 | 712.26
352.88 K, 19037 kPa, x2 = 0.5965 | 793.41
352.88 K, 19044 kPa, x2 = 0.8663 | 719.05
352.88 K, 20049 kPa, x2 = 0.5965 | 795.8
352.88 K, 20064 kPa, x2 = 0.8663 | 729.73
352.88 K, 21030 kPa, x2 = 0.5965 | 798.05
352.88 K, 21052 kPa, x2 = 0.8663 | 739.04
352.88 K, 22036 kPa, x2 = 0.5965 | 800.27
352.88 K, 22047 kPa, x2 = 0.8663 | 747.62
352.88 K, 23019 kPa, x2 = 0.5965 | 802.43
352.88 K, 23067 kPa, x2 = 0.8663 | 755.76
352.88 K, 24035 kPa, x2 = 0.8663 | 762.91
352.88 K, 24039 kPa, x2 = 0.5965 | 804.6
352.88 K, 25048 kPa, x2 = 0.8663 | 769.99
352.88 K, 25092 kPa, x2 = 0.5965 | 806.79
362.66 K, 20602 kPa, x2 = 0.9698 | 595.03
362.66 K, 21041 kPa, x2 = 0.9698 | 604.05
362.66 K, 22017 kPa, x2 = 0.9698 | 622.53
362.66 K, 23022 kPa, x2 = 0.9698 | 639.79
362.66 K, 24038 kPa, x2 = 0.9698 | 655.56
362.66 K, 25046 kPa, x2 = 0.9698 | 669.85
362.67 K, 1053 kPa, x2 = 0.0251 | 755.01
362.67 K, 2066 kPa, x2 = 0.0251 | 756.19
362.67 K, 3045 kPa, x2 = 0.0251 | 757.27
362.67 K, 4013 kPa, x2 = 0.0251 | 758.36
362.67 K, 5068 kPa, x2 = 0.0251 | 759.49
362.67 K, 6009 kPa, x2 = 0.0251 | 760.49
362.67 K, 6988 kPa, x2 = 0.0251 | 761.58
362.67 K, 7985 kPa, x2 = 0.0251 | 762.59
362.67 K, 9006 kPa, x2 = 0.0251 | 763.64
362.67 K, 10031 kPa, x2 = 0.0251 | 764.7
362.67 K, 11027 kPa, x2 = 0.0251 | 765.69
362.67 K, 12000 kPa, x2 = 0.0251 | 766.65
362.67 K, 13054 kPa, x2 = 0.0251 | 767.68
362.67 K, 14008 kPa, x2 = 0.0251 | 768.61
362.67 K, 14993 kPa, x2 = 0.0251 | 769.57
362.67 K, 16000 kPa, x2 = 0.0251 | 770.52
362.67 K, 17046 kPa, x2 = 0.0251 | 771.48
362.67 K, 17989 kPa, x2 = 0.0251 | 772.34
362.67 K, 19009 kPa, x2 = 0.0251 | 773.27
362.67 K, 20045 kPa, x2 = 0.0251 | 774.19
362.67 K, 21017 kPa, x2 = 0.0251 | 775.08
362.67 K, 22075 kPa, x2 = 0.0251 | 775.99
362.67 K, 23006 kPa, x2 = 0.0251 | 776.82
362.67 K, 24007 kPa, x2 = 0.0251 | 777.69
362.67 K, 25062 kPa, x2 = 0.0251 | 778.61
362.69 K, 2045 kPa, x2 = 0.0857 | 757.33
362.69 K, 3006 kPa, x2 = 0.0857 | 758.53
362.69 K, 3982 kPa, x2 = 0.0857 | 759.72
362.69 K, 5010 kPa, x2 = 0.0857 | 760.91
362.69 K, 5976 kPa, x2 = 0.0857 | 762.09
362.69 K, 6994 kPa, x2 = 0.0857 | 763.25
362.69 K, 7999 kPa, x2 = 0.0857 | 764.42
362.69 K, 8998 kPa, x2 = 0.0857 | 765.51
362.69 K, 10048 kPa, x2 = 0.0857 | 766.67
362.69 K, 11028 kPa, x2 = 0.0857 | 767.74
362.69 K, 11999 kPa, x2 = 0.0857 | 768.75
362.69 K, 12994 kPa, x2 = 0.0857 | 769.85
362.69 K, 14018 kPa, x2 = 0.0857 | 770.91
362.69 K, 15014 kPa, x2 = 0.0857 | 771.91
362.69 K, 15995 kPa, x2 = 0.0857 | 772.93
362.69 K, 17061 kPa, x2 = 0.0857 | 773.98
362.69 K, 18008 kPa, x2 = 0.0857 | 774.96
362.69 K, 19008 kPa, x2 = 0.0857 | 775.88
362.69 K, 20060 kPa, x2 = 0.0857 | 776.81
362.69 K, 21044 kPa, x2 = 0.0857 | 777.83
362.69 K, 22045 kPa, x2 = 0.0857 | 778.82
362.69 K, 23036 kPa, x2 = 0.0857 | 779.68
362.69 K, 24037 kPa, x2 = 0.0857 | 780.65
362.69 K, 25015 kPa, x2 = 0.0857 | 781.57
362.74 K, 14112 kPa, x2 = 0.4972 | 771.83
362.74 K, 15096 kPa, x2 = 0.4972 | 773.91
362.74 K, 15985 kPa, x2 = 0.4972 | 775.76
362.74 K, 17043 kPa, x2 = 0.4972 | 777.9
362.74 K, 18079 kPa, x2 = 0.4972 | 779.94
362.74 K, 19117 kPa, x2 = 0.4972 | 781.94
362.74 K, 20051 kPa, x2 = 0.4972 | 783.68
362.74 K, 21025 kPa, x2 = 0.4972 | 785.45
362.74 K, 22018 kPa, x2 = 0.4972 | 787.27
362.74 K, 23076 kPa, x2 = 0.4972 | 789.13
362.74 K, 24063 kPa, x2 = 0.4972 | 790.85
362.74 K, 25140 kPa, x2 = 0.4972 | 792.64
362.75 K, 21992 kPa, x2 = 0.8663 | 710.63
362.75 K, 23010 kPa, x2 = 0.8663 | 720.36
362.75 K, 24074 kPa, x2 = 0.8663 | 729.68
362.75 K, 25130 kPa, x2 = 0.8663 | 738.23
362.76 K, 15085 kPa, x2 = 0.5965 | 765.37
362.76 K, 16042 kPa, x2 = 0.5965 | 768.34
362.76 K, 17060 kPa, x2 = 0.5965 | 771.36
362.76 K, 18019 kPa, x2 = 0.5965 | 774.09
362.76 K, 19023 kPa, x2 = 0.5965 | 776.91
362.76 K, 20064 kPa, x2 = 0.5965 | 779.68
362.76 K, 21026 kPa, x2 = 0.5965 | 782.15
362.76 K, 22023 kPa, x2 = 0.5965 | 784.67
362.76 K, 23058 kPa, x2 = 0.5965 | 787.18
362.76 K, 24078 kPa, x2 = 0.5965 | 789.61
362.76 K, 25110 kPa, x2 = 0.5965 | 791.98
362.78 K, 6018 kPa, x2 = 0.1842 | 761.83
362.78 K, 6995 kPa, x2 = 0.1842 | 763.16
362.78 K, 8099 kPa, x2 = 0.1842 | 764.64
362.78 K, 9002 kPa, x2 = 0.1842 | 765.81
362.78 K, 10022 kPa, x2 = 0.1842 | 767.06
362.78 K, 10995 kPa, x2 = 0.1842 | 768.34
362.78 K, 12059 kPa, x2 = 0.1842 | 769.68
362.78 K, 13056 kPa, x2 = 0.1842 | 770.87
362.78 K, 14029 kPa, x2 = 0.1842 | 772.05
362.78 K, 15026 kPa, x2 = 0.1842 | 773.24
362.78 K, 16010 kPa, x2 = 0.1842 | 774.38
362.78 K, 17020 kPa, x2 = 0.1842 | 775.53
362.78 K, 18041 kPa, x2 = 0.1842 | 776.68
362.78 K, 19031 kPa, x2 = 0.1842 | 777.79
362.78 K, 20045 kPa, x2 = 0.1842 | 778.9
